What was measured:
Assay type in all cases: in vivo
[1] = test system: rat; assay: Carrageenin pleurisy assay (CPA), acute anti-inflammatory activity; details: dose required to reduce the 3 hour exudate volume by 50%
Description: Following the procedure described by Vinegar et al. in Proc.Soc.Exp.Biol.Med. 151, 556, (1976), the actue anti-inflammatory activityof compounds of formula (I) was compared with that of known anti-inflammatory drugs in the rat. The average 3 hour exudate volume for each drug treated group was determined and the % inhibition relative to solvent-fed control animals calculated, the ED50 being the dose required to reduce the 3 hour exudate volume by 50%.

[2] = Modified trypsin hyperalgesic assay (THA); details: 1 h; analgesia; pain scores determined 60 minutes after trypsin injection
Description: The procedure described by Vinegar et al. in Eur. J] […] The analgesic agents were administered 30 minutes after the administration of trypsin. In addition, a modification of Vinegar's published assay was carried out, comprising the administration of analgesic agent preceding subplantar injectin of trypsin (0.10 ml) of 10% solution of trypsin in pyrogen-free water by 15 minutes. In both THA's, pain scores were determined 60 minutes after trypsin injection. The results of the modification was to increase the sensitivity of the THA to the mild analgesic action of the agents.

[3] = test system: rat; assay: Rat hot plate assay; details: po, 1 h, administered orally by gavage 60 min prior to testing, protected = no response within 18.3 seconds
Text: The rat hot plate assay incorporated 2 modifications of the mouse hot plate assay originally described by Eddy et al, J. Pharmacol. Exp. Ther. 98, 121-137 (1950). The first modification was enlargement of the diameter of the cylindrical (water filled) copper plate to 25.0 cm to accommodate rats instead of mice.
The second modification was the use of a temperature controller to regulate a 250 watt infrared heat lamp which was activated via a thermistor probe attached to the undersurface of the top of the copper plate. The surface temperature was thus maintained at 45 + 1.0°C (N=28 measurements of the hot plate temperature under experimental conditions). The time in which a rat placed on the hotplate responded by lifting, shaking or licking either or its hind or forelimbs was recorded in tenths of a second.
Only animals responding in pretest within 6-13 seconds were used in the studies. Drugs were suspended in 0.5% sodium carboxymethylcellulose and administered orally, by gavage, in a volume of 1.00 ml/100 g.b wt. 60 min prior to testing. […] The reaction time of 18.3 seconds represented the sum of the mean protest times of 40 untreated rats plus the time of 3 standard deviations of the mean.ED50's and their standard errors were estimated from a graph of the dose-response curves using the method of Miller and Tainter (Proc.Soc.Exp.Biol.Med. 57, 261-262 (1944). Following this procedure the analgesic activity of the compounds of formula (I) was compared to that of standard analgesic drugs.

SMILES | ED50 [1] | ED50 [2] | ED50 [3]
C[C@@H]1CN(c2ccc3c(c2)OCO3)C(=O)[C@H]1C (relative stereo) [Example 4, trans-1-(1,3-benzodioxol-5-yl)-3,4-dimethyl-pyrrolidin-2-one] | 75 mg/kg | 46 mg/kg | 
CC1CC(=O)N(c2ccc3c(c2)OCO3)C1 (stereo not shown) [Example 1, 1-(1,3-benzodioxol-5-yl)-4-melhyl-pyrrolidin-2-one] | 96 mg/kg | 80 mg/kg | 120 mg/kg
C=CCOc1ccc(N2CCCC2=O)cc1 [Example 2, 1-(4-allyloxyphenyl)-pyrrolidin-2-one] | 57 mg/kg |  | 
O=C(O)CCCNc1ccc2c(c1)OCO2 [Example 5, 4-(1,3-benzodioxol-5-yl)amino butyric acid] | 42 mg/kg | 60 mg/kg | 120 mg/kg
COc1ccc(OC)c(N2CCCC2=O)c1 [Example 6, 1-(2,5-dimethoxyphenyl)-pyrrolidin-2-one] | 80 mg/kg |  | 
O=C1CCCN1c1ccc2[nH]ncc2c1 [Example 7, 1-(1H-indazol-5-yl)-pyrrolidin-2-one] | 34 mg/kg | 45 mg/kg | 30 mg/kg
COc1cc(OC)cc(N2CCCC2=O)c1 [Example 10, 1-(3,5-dimethoxyphenyl)-pyrrolidin-2-one] | 95 mg/kg |  | 
CCOc1ccc(N2CCCC2=O)cc1OCC [Example 18, 1-(3,4-diethoxyphenyl)-pyrrolidin-2-one] | 19 mg/kg |  | 
CCc1cccc(N2CCCC2=O)c1 [Example 20, 1-(3-ethylphenyl)-pyrrolidin-2-one] | 78 mg/kg |  | 
O=C1CCCN1c1ccccn1 [Example 21, 1-(2-pyridyl)-pyrrolidin-2-one] | 41 mg/kg |  | 
Cc1cccnc1N1CCCC1=O [Example 24, 1-(3-methyl-2-pyridyl)-pyrrolidin-2-one] | 29 mg/kg |  | 
CC1CCN(c2ccc3c(c2)OCO3)C1=O (stereo not shown) [Example 26, 1-(1,3-benzodioxol-5-yl)-3-methyl-pyrrolidin-2-one] | 39 mg/kg |  | 
C#CCOc1ccccc1N1CCCC1=O [Example 27, 1-(2-(propyl-yn-yloxy)phenyl)-pyrrolidin-2-one] | 35 mg/kg | 40 mg/kg | 
C=CCOc1ccccc1N1CCCC1=O [Example 28, 1-(2-allyloxyphenyl)-pyrrolidin-2-one] | 62 mg/kg |  | 120 mg/kg
C#CC(C)Oc1ccccc1N1CCCC1=O (stereo not shown) [Example 31, 1-(2-(1-methyl-prop-2-yn-yl)oxyphenyl)-pyrrolidin-2-one] | 39 mg/kg |  | 
O=C(O)COc1ccccc1N1CCCC1=O [Example 37, 2-(2-oxy-1-pyrrolidinyl)phenoxyacetic acid] | 50 mg/kg |  | 
